Laboratory results published in patent publication US9782522B2, “Compositions and methods for treating and preventing neointimal stenosis” (Yale University, priority 2011, dated 2017).

Legend:
[1] = doses of 40 mg and 80 mg; cited from earlier work
[2] = system: TGF-β1-induced smad2/3 nuclear localization; conditions: cited from earlier work
let-7 family miRNAs = assay: qRT-PCR let-7 miRNA expression in endothelial cells; assay type: cell-based, human; conditions: normal EC (HUAEC); U0126 at 10 μM
Protocol: Quantitative PCR analysis of 88 miRNA was performed using Human Cell Differentiation & Development RT^2 Profiler™ PCR Arrays (MAH-103A, QIAGEN) following the manufacturer's protocol. Validation of microRNA array data was performed with the RT^2 miRNA qPCR Assays and RT-PCR Primer Sets according to the manufacturer's instructions (QIAGEN). Primers for human mature let-7a (MPH00001A), let-7b (MPH00002A), let-7c (MPH00003A), let-7d (MPH00004A), let-7e (MPH00005A), let-7f (MPH00006A), let-7g (MPH00007A), mir-98 (MPH00480A), SNORD47 (MPH01660A) were from QIAGEN. Primers for mouse mature let-7a (MPM00483A), let-7b (MPM00484A), let-7c (MPM485A), let-7d (MPM00486A), let-7e (MPM00487A), let-7f (MPM00488A), let-7g (MPM00489A), let-7i (MPM00490A), mir-98 (MPM00875A) were from QIAGEN. Individual miRNA expression was normalized in relation to expression or small nuclear U6B RNA, a commonly used internal control for miRNA quantification assay. PCR amplification consisted of 10 min of an initial denaturation step at 95° C., followed by 45 cycles of PCR at 95° C. for 30 s, 60° C. for 30 s.
Recombinant human FGF2 (R&D) and TGFβ1 (Peprotech) were reconstituted in 0.1% BSA/PBS. U0126 (Sigma), a MEK inhibitor, was reconstituted in DMSO and used at a final concentration of 10 μM. […]

mammary epithelial cells = conditions: cited from earlier work
[3] = system: TGF-β types I and II receptors; conditions: cited from earlier work
Smad2/3 phosphorylation = conditions: cited from earlier work
HUAEC = assay: qRT-PCR mRNA expression of TGFβ signaling and Endo-MT markers in endothelial cells; assay type: cell-based, human; conditions: primary EC in vitro following FRS2 knockdown; lentiviral let-7 expression
Source text: Human 293T T17 cells (ATCC CRL-11268) were maintained in Dulbecco's modified Eagle's medium (Gibco) with 10% fetal bovine serum (Invitrogen) and penicillinstreptomycin (Gibco). Primary human mammary epithelial cells (HuMEC, Invitrogen), were maintained in HuMEC basal serum free medium with HuMEC supplement (Invitrogen 12754-016) and bovine pituitary extract (Invitrogen 13028-014). Human foreskin cells (ATCC CRL-1079Sk) were maintained in Minimum Essential Medium (ATCC) with 10% fetal bovine serum (Hyclone), β-mercaptoethanol (Sigma), and penicillin-streptomycin (Gibco). Primary human atrial cells (passage 3-5; gift from Y. Qyang, Yale University School of Medicine) were maintained in Dulbecco's modified Eagle's medium (Gibco) with 10% fetal bovine serum (Invitrogen), L-glutamine (Gibco), Sodium pyruvate (Gibco), Non-essential amino acid (Gibco), and penicillin-streptomycin (Gibco). HUAEC (human umbilical artery endothelial cells, passage 5-10, Lonza) were cultured in EBM-2 supplemented with EGM-2-MV bullet kit (Lonza). HUVEC (human umbilical vein endothelial cells, passage 3-7, Yale Vascular Biology and Therapeutics) were cultured in M199 with ECGS, supplemented with 20% FBS (Sigma), L-glutamine (Gibco), and penicillin-streptomycin (Gibco). Culture vessels were coated with 0.1% gelatin (Sigma) for 30 min at 37° C. immediately prior to cell seeding. Primary mouse endothelial cells were isolated from the heart using rat anti-mouse CD31 antibody and Dynabeads (Invitrogen) as previously described (Partovian C, et al. Mol Cell. 32(1):140 (2008)).
RNA was isolated using RNeasy® plus Mini Kit (Qiagen) and converted to cDNA using iScript™ cDNA synthesis kit (Bio-Rad). Quantitative real-time PCR (qRT-PCR) was performed using Bio-Rad […] (Bio-Rad) by mixing equal amount of eDNAs, iQ™ SYBR® Green Supermix (Bio-Rad) and gene specific primers. All reactions were done in a 25 μl reaction volume in duplicate. Data were normalized to endogenous β-actin. Values are expressed as fold change in comparison to control. Mouse TGFβ gene expression was quantified via qRT-PCR with TaqMan® Gene Expression Assays (Mm00441726_m1; Applied Biosystems) and HPRT (Mm00441258_1; Applied Biosystems) as endogenous control followed the manufacturer's recommendation. Quantitative PCR analysis of 84 TGFβ and epithelial to mesenchymal transition (EMT) related genes were performed using Human TGFβ BMP signaling pathway (PAHS-035D, QIAGEN) and Human Epithelial to Mesenchymal Transition (PAHS-090D, QIAGEN) RT^2 Profiler™ PCR Arrays following the manufacturer's protocol. RT^2 Profiler™ PCR arrays were run on a Bio-Rad CFX96 machine (Bio-Rad). Duplicate arrays were run per condition for control and FRS2 knockdown human umbilical arterial endothelial cells (HUAEC). Data analysis was performed using the manufacturer's integrated web-based software package for the PCR Array System using cycle threshold (Ct)-based fold-change calculations.
Recombinant human FGF2 (R&D) and TGFβ1 (Peprotech) were reconstituted in 0.1% BSA/PBS. U0126 (Sigma), a MEK inhibitor, was reconstituted in DMSO and used at a final concentration of 10 μM. SB431542 (Sigma), a TGFBR1 kinase inhibitor, was reconstituted in DMSO and used at a final concentration of 10 μM in cell culture. Actinomycin D (Sigma), a DNA transcription suppressor, was reconstituted in acetone and used at a final concentration of 10 μg/ml in cell culture. […]

In the case of `Cc1cccc(-c2nn3c(c2-c2ccnc4ccc(C(N)=O)cc24)CCC3)n1` [LY2157299, 4-(2-(6-methylpyridin-2-yl)-5,6-dihydro-4H-pyrrolo[1,2-b]pyrazol-3-yl)quinoline-6-carboxamide], the Tolerability [1] is given as “well tolerated”.

For `Cc1cccc(-c2[nH]c(C(C)(C)C)nc2-c2ccc3nccnc3c2)n1` [SB525334, 6-[2-(1,1-Dimethylethyl)-5-(6-methyl-2-pyridinyl)-1H-imidazol-4-yl]quinoxaline], the “TGF-β1-induced mRNA expression” value [2] is given as “inhibits” and the “TGF-β1-induced smad2/3 nuclear localization” value [2] is given as “inhibits”.

For FGF2: Recombinant human FGF2 (R&D), the “Expression of let-7 family miRNAs” value (let-7 family miRNAs) was “time dependent increase”.

In the case of `Cc1cccc(-c2nc(NCc3cccc(C#N)c3)sc2-c2ccc3ncnn3c2)n1` [EW-7203, 3((5-([1,2,4]triazolo[1,5-a]pyridin-6-yl)-4-(6-methylpyridin-2-yl)thiazol-2-ylamino)methyl)benzonitrile], the Endo-MT (mammary epithelial cells) is listed as “inhibits” and the “TGF-β1-induced Smad signaling” value (mammary epithelial cells) is listed as “inhibits”.

For `CCCCc1nc(Cl)c(CO)n1Cc1ccc(-c2ccccc2-c2nnn[nH]2)cc1` [Losartan, (2-butyl-4-chloro-1-{[2′-(1H-tetrazol-5-yl)biphenyl-4-yl]methyl}-1H-imidazol-5-yl)methanol], the “Expression of TGF-β types I and II receptors” value [3] is given as “downregulate”.

In the case of `N#CC(=C(/N)Sc1ccccc1N)/C(C#N)=C(\N)Sc1ccccc1N` [U0126], the “Expression of let-7 family miRNAs” value (let-7 family miRNAs) is reported as “decrease”.

For `Cc1cccc(-c2nc(C34CCC(C(N)=O)(CC3)CC4)[nH]c2-c2ccc3c(c2)OCO3)n1` [SM16, 4-(5-(benzo[d][1,3]dioxol-5-yl)-4-(6-methylpyridin-2-yl)-1H-imidazol-2-yl)bicyclo[2.2.2]octane-1-carboxamide], the “TGF-β and activin-induced Smad2/3 phosphorylation” value (Smad2/3 phosphorylation) is given as “blocks”.

B1: Let-7b/c: let-7b and let-7c miRNAs expressed from lentivirus vector (pre-let-7b, pre-let-7c) (nucleic acid, listed as Homo sapiens)
chain: GCAUCCGGGUUGAGGUAGUAGGUUGUAUGGUUUAGAGUUACACCCUGGGAGUUAACUGUACAACCUUCUAGCUUUCCUUGGAGC
In the case of B1, the “Expression of all SMC and mesenchymal markers” value (HUAEC) is reported as “declined to pre-FRS2 knockdown levels” and the “TGFβR1 and SMAD2 expression” value (HUAEC) is reported as “fully inhibited”.
